Here are results for 33 compounds from patent US7700592B2, “α2C adrenoreceptor agonists” (Schering Corporation, priority 2005, dated 2010).

Structures are written as SMILES.

The target of this test is T1, α2C receptor (Homo sapiens, UniProt P18825).
T1 sequence (P18825 1-462): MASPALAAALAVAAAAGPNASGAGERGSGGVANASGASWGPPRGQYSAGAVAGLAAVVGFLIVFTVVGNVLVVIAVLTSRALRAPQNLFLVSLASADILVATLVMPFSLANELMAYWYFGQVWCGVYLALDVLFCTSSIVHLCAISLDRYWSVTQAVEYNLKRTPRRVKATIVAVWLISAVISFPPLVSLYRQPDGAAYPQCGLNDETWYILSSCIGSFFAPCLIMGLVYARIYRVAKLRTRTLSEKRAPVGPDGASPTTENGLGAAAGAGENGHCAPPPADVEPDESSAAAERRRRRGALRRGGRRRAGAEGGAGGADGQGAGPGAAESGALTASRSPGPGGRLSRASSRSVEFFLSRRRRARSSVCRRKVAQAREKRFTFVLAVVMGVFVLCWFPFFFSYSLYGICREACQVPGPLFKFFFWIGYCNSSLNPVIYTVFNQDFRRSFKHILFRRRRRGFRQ
In words: GTPγS assay, efficacy agonist activity (Emax) for α2C. The note with it: active agonist = efficacy at α2C ≧30% Emax; functionally selective = additionally efficacy at α2A ≦30% Emax (GTPγS assay). The format is biochemical. The source says:
For the purposes of this present invention, a compound is defined to be an active agonist of the α2C receptor subtype if the compound's efficacy at the α2C receptor is ≧30% Emax (GTPγS assay). A compound is a functionally selective agonist of the α2C receptor subtype over the α2A receptor subtype if the compound's efficacy at the α2C receptor is ≧30% Emax (GTPγS assay) and its efficacy at the α2A receptor is ≦30% Emax (GTPγS assay).
Efficacy agonist activity values (Emax, GTPγS assay) for α2C were determined by following the general procedure detailed by Umland et al (“Receptor reserve analysis of the human α2c-adrenoceptor using [^35S]GTPγS and cAMP functional assays” European Journal of Pharmacology 2001, 411, 211-221). For the purposes of the present invention, a compound is defined to be an active agonist of the α2C receptor subtype if the compound's efficacy at the α2C receptor is ≧30% Emax (GTPγS assay). A compound is a functionally selective agonist of the α2C receptor subtype over the α2A receptor subtype if the compound's efficacy at the α2C receptor is […] Emax (GTPγS assay) and its efficacy at the α2A receptor is ≦30% Emax (GTPγS assay).

With `CCN(C(=O)n1ccnc1)c1ccc2c(c1)N(Cc1c[nH]cn1)CCO2` [Compound 64A], the “Efficacy agonist activity (Emax, GTPγS assay) for α2C: evaluated as active or functionally selective agonist” value was “active or functionally selective agonists of the α2C receptor subtype”.

Turning to `CCN(C(=O)OCc1ccccn1)c1ccc2c(c1)N(Cc1c[nH]cn1)CCO2` [Compound 64], the “Efficacy agonist activity (Emax, GTPγS assay) for α2C: evaluated as active or functionally selective agonist” value is listed as “active or functionally selective agonists of the α2C receptor subtype”. In the case of `CCN(C(=O)OCc1ccc(S(C)(=O)=O)cc1)c1ccc2c(c1)N(Cc1c[nH]cn1)CCO2` [Compound 65] it was “active or functionally selective agonists of the α2C receptor subtype”; in that of `COC(=O)Cc1ccc2c(c1)N(Cc1c[nH]cn1)CCO2` [Compound 114], “active or functionally selective agonists of the α2C receptor subtype”; in that of `c1cnc2c(c1)OCCN2Cc1c[nH]cn1` [Compound 117], “active or functionally selective agonists of the α2C receptor subtype”. As to `Fc1cc(Br)cc2c1OCCN2Cc1c[nH]cn1` [Compound 124], the “Efficacy agonist activity (Emax, GTPγS assay) for α2C: evaluated as active or functionally selective agonist” value is “active or functionally selective agonists of the α2C receptor subtype”. On to `N#Cc1cc(F)c2c(c1)N(Cc1c[nH]cn1)CCO2` [Compound 125], for which the “Efficacy agonist activity (Emax, GTPγS assay) for α2C: evaluated as active or functionally selective agonist” value was “active or functionally selective agonists of the α2C receptor subtype”. On to `Cc1cc([N+](=O)[O-])cc2c1OCCN2Cc1c[nH]cn1` [Compound 129], for which the “Efficacy agonist activity (Emax, GTPγS assay) for α2C: evaluated as active or functionally selective agonist” value was “active or functionally selective agonists of the α2C receptor subtype”. The value for `COC(=O)Nc1cc(C)c2c(c1)N(Cc1c[nH]cn1)CCO2` [Compound 130] was “active or functionally selective agonists of the α2C receptor subtype”; that for `O=CNc1cc(F)c2c(c1)N(Cc1c[nH]cn1)CCO2` [Compound 132] was “active or functionally selective agonists of the α2C receptor subtype”; that for `CNC(=O)N(C)c1cc(F)c2c(c1)N(Cc1c[nH]cn1)CCO2` [Compound 134] was “active or functionally selective agonists of the α2C receptor subtype”.

Consider `COC(=O)N(C)c1cc(F)c2c(c1)N(Cc1c[nH]cn1)CCO2` [Compound 135], for which the “Efficacy agonist activity (Emax, GTPγS assay) for α2C: evaluated as active or functionally selective agonist” value is recorded as “active or functionally selective agonists of the α2C receptor subtype”.

As for `COC(=O)Nc1ccc2c(n1)N(Cc1c[nH]cn1)CCO2` [Compound 137], the “Efficacy agonist activity (Emax, GTPγS assay) for α2C: evaluated as active or functionally selective agonist” value is listed as “active or functionally selective agonists of the α2C receptor subtype”.

As for `COC(=O)Nc1ccc2c(c1)N(CCc1c[nH]cn1)CCO2` [Compound 139], the “Efficacy agonist activity (Emax, GTPγS assay) for α2C: evaluated as active or functionally selective agonist” value is reported as “active or functionally selective agonists of the α2C receptor subtype”. For `CN(C)S(=O)(=O)Nc1ccc2c(c1)N(Cc1c[nH]cn1)CCS2` [Compound 142], the “Efficacy agonist activity (Emax, GTPγS assay) for α2C: evaluated as active or functionally selective agonist” value is listed as “active or functionally selective agonists of the α2C receptor subtype”. On to `CNC(=O)N(C)c1ccc2c(c1)N(Cc1c[nH]cn1)CCS2` [Compound 144], for which the “Efficacy agonist activity (Emax, GTPγS assay) for α2C: evaluated as active or functionally selective agonist” value is given as “active or functionally selective agonists of the α2C receptor subtype”. Take `FC(F)(F)c1ccc2c(c1)N(Cc1c[nH]cn1)CCS2` [Compound 145]: the “Efficacy agonist activity (Emax, GTPγS assay) for α2C: evaluated as active or functionally selective agonist” value is on record as “active or functionally selective agonists of the α2C receptor subtype”.

As for `COc1ccc(-c2ccc3c(c2)N(Cc2c[nH]cn2)CCO3)cn1` [Compound 148], the “Efficacy agonist activity (Emax, GTPγS assay) for α2C: evaluated as active or functionally selective agonist” value is reported as “active or functionally selective agonists of the α2C receptor subtype”. The value for `CCN(C(=O)OC)c1ccc2c(c1)N(Cc1c[nH]cn1)CCO2` [Compound 151] was “active or functionally selective agonists of the α2C receptor subtype”. The value for `N=C(N)c1cc(F)c2c(c1)N(Cc1c[nH]cn1)CCO2` [Compound 152] was “active or functionally selective agonists of the α2C receptor subtype”. Consider `CCN(C(C)=O)c1ccc2c(c1)N(Cc1c[nH]cn1)CCO2` [Compound 158], for which the “Efficacy agonist activity (Emax, GTPγS assay) for α2C: evaluated as active or functionally selective agonist” value was “active or functionally selective agonists of the α2C receptor subtype”. For `CCOC(=O)N(CC)c1ccc2c(c1)N(Cc1c[nH]cn1)CCO2` [Compound 159], the “Efficacy agonist activity (Emax, GTPγS assay) for α2C: evaluated as active or functionally selective agonist” value is “active or functionally selective agonists of the α2C receptor subtype”. With `CCN(C(=O)OCCOC)c1ccc2c(c1)N(Cc1c[nH]cn1)CCO2` [Compound 160], the “Efficacy agonist activity (Emax, GTPγS assay) for α2C: evaluated as active or functionally selective agonist” value is “active or functionally selective agonists of the α2C receptor subtype”. `CC#CCOC(=O)N(CC)c1ccc2c(c1)N(Cc1c[nH]cn1)CCO2` [Compound 162]: the “Efficacy agonist activity (Emax, GTPγS assay) for α2C: evaluated as active or functionally selective agonist” value is recorded as “active or functionally selective agonists of the α2C receptor subtype”. The value for `CCN(C(=O)COC)c1ccc2c(c1)N(Cc1c[nH]cn1)CCO2` [Compound 163] was “active or functionally selective agonists of the α2C receptor subtype”; that for `CCN(C(=O)CCOC)c1ccc2c(c1)N(Cc1c[nH]cn1)CCO2` [Compound 164] was “active or functionally selective agonists of the α2C receptor subtype”; that for `CCN(C(=O)COCCOC)c1ccc2c(c1)N(Cc1c[nH]cn1)CCO2` [Compound 165] was “active or functionally selective agonists of the α2C receptor subtype”. With `CCN(C(=O)CCCc1ccccc1)c1ccc2c(c1)N(Cc1c[nH]cn1)CCO2` [Compound 167], the “Efficacy agonist activity (Emax, GTPγS assay) for α2C: evaluated as active or functionally selective agonist” value is “active or functionally selective agonists of the α2C receptor subtype”. Regarding `CNC(=O)N(C)c1ccc2c(c1)N(C(C#N)c1c[nH]cn1)CCO2` (stereo not drawn) [Compound 168], the “Efficacy agonist activity (Emax, GTPγS assay) for α2C: evaluated as active or functionally selective agonist” value is “active or functionally selective agonists of the α2C receptor subtype”.

With `CCN(C(=O)NC)c1ccc2c(c1)N(C(C#N)c1c[nH]cn1)CCO2` (stereo not drawn) [Compound 169], the “Efficacy agonist activity (Emax, GTPγS assay) for α2C: evaluated as active or functionally selective agonist” value was “active or functionally selective agonists of the α2C receptor subtype”.

Consider `COC(=O)Nc1ccc2c(c1)N(C(C#N)c1c[nH]cn1)CCO2` (stereo not drawn) [Compound 171], for which the “Efficacy agonist activity (Emax, GTPγS assay) for α2C: evaluated as active or functionally selective agonist” value was “active or functionally selective agonists of the α2C receptor subtype”. The value for `CCN(C(=O)OC)c1cc(F)c2c(c1)N(Cc1c[nH]cn1)CCO2` [Compound 178] was “active or functionally selective agonists of the α2C receptor subtype”.

In the case of `COC(=O)Nc1cc(F)c2c(c1)N(C(C#N)c1c[nH]cn1)CCO2` (stereo not drawn) [Compound 181], the “Efficacy agonist activity (Emax, GTPγS assay) for α2C: evaluated as active or functionally selective agonist” value is “active or functionally selective agonists of the α2C receptor subtype”.
